Literature values in US20040192658A1, “Compositions and methods of using collajolie” (Angiotech International AG, priority 2002, published 2004).

T1: interstitial collagenase (Homo sapiens, UniProt P03956)
T1 sequence (P03956 100-469): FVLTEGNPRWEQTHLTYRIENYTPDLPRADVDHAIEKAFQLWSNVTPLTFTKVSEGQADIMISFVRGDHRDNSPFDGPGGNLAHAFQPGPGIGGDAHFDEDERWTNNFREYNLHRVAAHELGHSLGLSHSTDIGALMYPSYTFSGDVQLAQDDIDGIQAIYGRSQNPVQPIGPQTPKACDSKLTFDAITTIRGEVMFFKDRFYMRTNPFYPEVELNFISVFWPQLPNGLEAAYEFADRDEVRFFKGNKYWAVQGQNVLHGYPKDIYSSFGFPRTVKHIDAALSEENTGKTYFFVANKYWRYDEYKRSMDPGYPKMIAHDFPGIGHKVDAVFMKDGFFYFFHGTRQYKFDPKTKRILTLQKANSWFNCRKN

T2: gelatinase A (Homo sapiens, UniProt P08253)
T2 sequence (P08253 110-660): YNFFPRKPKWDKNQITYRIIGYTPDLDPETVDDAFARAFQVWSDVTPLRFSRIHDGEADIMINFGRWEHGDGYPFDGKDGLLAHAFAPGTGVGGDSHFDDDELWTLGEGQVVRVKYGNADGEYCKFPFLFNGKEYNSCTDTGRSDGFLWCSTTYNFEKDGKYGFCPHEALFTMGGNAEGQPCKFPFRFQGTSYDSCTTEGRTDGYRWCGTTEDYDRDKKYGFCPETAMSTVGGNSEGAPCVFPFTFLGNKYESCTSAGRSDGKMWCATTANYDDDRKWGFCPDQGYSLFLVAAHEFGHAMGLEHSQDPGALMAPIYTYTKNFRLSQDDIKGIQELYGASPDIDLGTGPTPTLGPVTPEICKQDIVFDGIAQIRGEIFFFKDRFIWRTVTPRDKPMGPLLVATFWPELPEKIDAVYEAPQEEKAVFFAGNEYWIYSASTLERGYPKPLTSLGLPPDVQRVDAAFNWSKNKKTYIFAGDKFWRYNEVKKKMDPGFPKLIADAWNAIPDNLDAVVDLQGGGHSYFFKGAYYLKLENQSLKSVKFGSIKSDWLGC

T3: collagenase 1 (Homo sapiens, UniProt P03956)
T3 sequence (P03956 100-469): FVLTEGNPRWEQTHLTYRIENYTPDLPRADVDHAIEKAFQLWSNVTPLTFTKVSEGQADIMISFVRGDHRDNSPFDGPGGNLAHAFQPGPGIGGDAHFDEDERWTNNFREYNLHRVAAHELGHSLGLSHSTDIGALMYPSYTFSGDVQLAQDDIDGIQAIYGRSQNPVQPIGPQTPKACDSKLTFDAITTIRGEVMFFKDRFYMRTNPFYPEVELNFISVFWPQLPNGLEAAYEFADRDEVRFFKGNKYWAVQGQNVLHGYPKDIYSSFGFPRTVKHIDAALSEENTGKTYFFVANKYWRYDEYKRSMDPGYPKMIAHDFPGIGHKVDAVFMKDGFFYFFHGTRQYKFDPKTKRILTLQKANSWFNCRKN


Experiments:
interstitial collagenase = biological target: T1, interstitial collagenase; conditions: compared with TIMP-2
gelatinase B = gelatinase B (Homo sapiens, UniProt P14780)
gelatinase A = biological target: T2, gelatinase A
collagenase 1 = biological target: T3, collagenase 1

gelatinase B, sequence (P14780 94-707, species assumed): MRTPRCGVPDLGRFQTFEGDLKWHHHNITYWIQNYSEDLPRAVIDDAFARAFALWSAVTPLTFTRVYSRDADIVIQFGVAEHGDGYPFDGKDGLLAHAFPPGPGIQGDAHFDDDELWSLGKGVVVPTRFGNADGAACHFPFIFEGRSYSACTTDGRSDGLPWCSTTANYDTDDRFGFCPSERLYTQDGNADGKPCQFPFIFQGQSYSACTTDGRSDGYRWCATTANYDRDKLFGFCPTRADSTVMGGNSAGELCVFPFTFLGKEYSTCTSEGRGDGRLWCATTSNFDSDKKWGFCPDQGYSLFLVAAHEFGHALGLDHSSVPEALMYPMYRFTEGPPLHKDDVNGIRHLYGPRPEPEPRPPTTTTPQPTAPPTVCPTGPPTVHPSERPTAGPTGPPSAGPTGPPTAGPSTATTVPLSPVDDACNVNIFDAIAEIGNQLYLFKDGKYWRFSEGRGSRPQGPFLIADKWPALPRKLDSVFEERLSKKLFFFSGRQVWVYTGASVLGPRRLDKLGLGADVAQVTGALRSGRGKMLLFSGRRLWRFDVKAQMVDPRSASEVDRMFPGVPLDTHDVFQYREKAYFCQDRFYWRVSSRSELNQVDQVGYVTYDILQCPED

Row | Molecule | well tolerated daily dosage | established (well) tolerated single dose | other results
1 | CNC(=O)[C@@H](NC(=O)[C@H](CC(C)C)[C@H](O)C(=O)NO)C(C)(C)C |  |  | established well tolerated single daily dose (single daily dose): 50 mg
2 | CN(C)[C@@H]1C(O)=C(C(N)=O)C(=O)[C@@]2(O)C(O)=C3C(=O)c4c(O)cccc4[C@@](C)(O)C3C[C@@H]12 (stereo in doubt) [tetracycline, 4-(dimethylamino)-1,4,4a,5,5a,6,11,12a-octahydro-3,6,10,12,12a-pentahydroxy-6-methyl-1,11-dioxo-2-naphthacenecarboxamide] | 1000 mg | 1000 mg | 
3 | CN1C(=O)N(C[C@H](C(=O)NO)[C@@H](CC2CCCC2)C(=O)N2CCCCC2)C(=O)C1(C)C [TROCADE] |  | 150 mg | 
4 | C[C@H]1c2cccc(O)c2C(=O)C2=C(O)[C@]3(O)C(=O)C(C(N)=O)=C(O)[C@@H](N(C)C)[C@@H]3[C@@H](O)[C@@H]21 [doxycycline, α-6-deoxy-5-hydroxy-tetracycline] | 100 mg | 200 mg | 
5 | CN(C)c1ccc(O)c2c1C[C@H]1C[C@H]3[C@H](N(C)C)C(O)=C(C(N)=O)C(=O)[C@@]3(O)C(O)=C1C2=O [minocycline, 7-dimethylamino-6-dimethyl-6-deoxytetracycline] | 200 mg | 200 mg | 
6 | TIMP-1: 30 kD Tissue Inhibitor of Matrix Metalloproteinase, the most commonly expressed TIMP molecule |  |  | inhibition of interstitial collagenase (interstitial collagenase): better inhibitor of interstitial collagenase than TIMP-2
7 | TIMP-3: 21 kD Tissue Inhibitor of Matrix Metalloproteinase (protein, UniProt P35625 24-211, looked up) Metalloproteinase inhibitor 3: CTCSPSHPQDAFCNSDIVIRAKVVGKKLVKEGPFGTLVYTIKQMKMYRGFTKMPHVQYIHTEASESLCGLKLEVNKYQYLLTGRVYDGKMYTGLCNFVERWDQLTLSQRKGLNYRYHLGCNCKIKSCYYLPCFVTSKNECLWTDMLSNFGYPGYQSKHYACIRQKGGYCSWYRGWAPPDKSIINATDP |  |  | inhibition of stromelysin (stromelysin): inhibits; inhibition of gelatinase B (gelatinase B): inhibits; inhibition of gelatinase A (gelatinase A): inhibits; inhibition of collagenase 1 (collagenase 1): inhibits
